# Measured values reported in US9321722B2, “Bis-indolic derivatives, their uses in particular as antibacterials” (UNIVERSITE JOSEPH FOURIER, priority 2011, dated 2016).
# Tests used:
# [1] = system: S. aureus ATCC 106414 (VISA); assay: MIC microdilution (Table I-1); assay type: cell-based, Staphylococcus aureus; details: Staphylococcus aureus, read after 18 hours, read-out: MIC
# Experimental: (§1) The microdilution method recommended by the Clinical and Laboratory Standard Institute [M07-A8, Vol. 29, N^o 2] was used. The activity of indolic compounds was tested against 29 bacterial strains belonging to 17 different species and 12 different genera (Staphylococcus, Streptococcus, Enterococcus, Listeria, Bacillus, Haemophilus, Escherichia, Klebsiella, Enterobacter, Serratia, Pseudomonas, and Acinetobacter). Bacterial inocula were prepared in Mueller Hinton broth (MH2, bioMerieux, Marcy L'Etoile, France), supplemented with 10% sheep blood for fastidious species (i.e., Streptococcus pneumoniae and Haemophilus influenzae). They were dispensed in 96 well microtiter plates (5×10^5 CFU/ml of final inoculum). Indolic compounds were added to the wells as to obtain two-fold serial concentrations (0.50-128 mg/L of final concentrations). Plates were incubated at 37° C. in ambient air, or at 37° C. in 5% CO2 enriched atmosphere for fastidious species. […] Drug-free cultures served as growth controls. Cultures receiving gentamicin, ciprofloxacin or cefotaxime served as positive controls.
# [2] = system: S. aureus ATCC 29213; assay: MIC microdilution (Table I-1); assay type: cell-based, Staphylococcus aureus; details: Staphylococcus aureus, ATCC29213, read after 18 hours, read-out: MIC
# Experimental: as §1
# [3] = system: S. aureus ATCC 33592 (MRSA); assay: MIC microdilution (Table I-1); assay type: cell-based, Staphylococcus aureus; details: Staphylococcus aureus, read after 18 hours, read-out: MIC
# Experimental: as §1
# [4] = system: S. aureus ATCC 6538; assay: MIC microdilution (Table I-1); assay type: cell-based, Staphylococcus aureus; details: Staphylococcus aureus, ATCC6538, read after 18 hours, read-out: MIC
# Experimental: as §1
# [5] = system: S. aureus ATCC 9144; assay: MIC microdilution (Table I-1); assay type: cell-based, Staphylococcus aureus; details: Staphylococcus aureus, ATCC9144, read after 18 hours, read-out: MIC
# Experimental: as §1
# [6] = system: S. aureus CIP 103428; assay: MIC microdilution (Table I-1); assay type: cell-based, Staphylococcus aureus; details: Staphylococcus aureus, CIP103428, read after 18 hours, read-out: MIC
# Experimental: as §1
# [7] = system: S. aureus CIP 65.25 (MRSA); assay: MIC microdilution (Table I-1); assay type: cell-based, Staphylococcus aureus; details: Staphylococcus aureus, read after 18 hours, read-out: MIC
# Experimental: as §1
# [8] = system: S. aureus CIP 65.6; assay: MIC microdilution (Table I-1); assay type: cell-based, Staphylococcus aureus; details: Staphylococcus aureus, CIP65, read after 18 hours, read-out: MIC
# Experimental: as §1
# [9] = system: S. aureus SA-1199B; assay: MIC microdilution (Table I-1); assay type: cell-based, Staphylococcus aureus; details: Staphylococcus aureus, SA1199B, 18 h
# Experimental: as §1
# [10] = system: S. epidermidis ATCC 12228; assay: MIC microdilution (Table I-1); assay type: cell-based, Staphylococcus epidermidis; details: Staphylococcus epidermidis, ATCC12228, read after 18 hours, read-out: MIC
# Experimental: as §1
# [11] = system: S. epidermidis CIP 103627; assay: MIC microdilution (Table I-1); assay type: cell-based, Staphylococcus epidermidis; details: Staphylococcus epidermidis, CIP103627, read after 18 hours, read-out: MIC
# Experimental: as §1
# [12] = system: S. epidermidis CIP 81.55; assay: MIC microdilution (Table I-1); assay type: cell-based, Staphylococcus epidermidis; details: Staphylococcus epidermidis, CIP81, read after 18 hours, read-out: MIC
# Experimental: as §1
# [13] = system: Haemophilus influenzae ATCC 49766; assay: MIC microdilution (Table I-1); assay type: cell-based; details: ATCC49766; Haemophilus influenzae ATCC 49766; read after 18 hours; read-out: MIC
# Experimental: as §1
# [14] = system: Listeria innocua CIP 80.11; assay: MIC microdilution (Table I-1); assay type: cell-based; details: CIP80, read after 18 hours, read-out: MIC
# Experimental: as §1
# [15] = system: S. agalactiae (group B) ATCC 12400; assay: MIC microdilution (Table I-1); assay type: cell-based; details: Streptococcus agalactiae, ATCC12400, read after 18 hours, read-out: MIC
# Experimental: as §1
# [16] = system: Staphylococcus aureus 1199B (overexpression of the NorA efflux pump); assay: Efflux pump inhibition assay with sub-inhibitory ciprofloxacin; assay type: cell-based
# Experimental: The efflux pump inhibition potential of the bis-indolic derivatives was tested using two steps. In a first step, the intrinsic antibacterial activity of the compounds was assayed against the following strains:
# The following experimental protocol was used: indolic derivatives (initially solubilised in DMSO at 10 mg/mL) were dispensed in a 96-wells microplate by two fold serial dilutions in Muller-Hinton medium (MH, Bio Rad) using a Biomek 2000 (Beckman) handling robot. 100 μL of the bacterial inoculum (an overnight culture at 37° C. in 5 mL MH diluted 100-fold) was then added in each well. The total volume was 200 μL in each well and the final bacteria concentration 10^6 CFU/mL (CFU: colony forming unit). The highest final indolic derivative concentration was 128 mg/L. Growth was assayed with a microplate reader by monitoring absorption at 620 nm after 1, 2, 5, 7 and 24 h incubation at 37° C. In addition, the plates were read visually after 24 hours incubation. Cultures containing 5 μL DMSO were used as growth controls. In addition, two controls containing a sub-inhibitory or a inhibitory antibiotic concentration for the tested strain were performed. The antibiotics used were ampicillin (0.5 and 32 μg/mL) for E. coli, kanamycin (0.5 and 16 μg/mL) for S. aureus ATCC 25923, ciprofloxacin (4 and 64 mg/L) for S. aureus 1199B, ciprofloxacin (0.5 and 2 mg/L) for S. aureus K2378. All experiments were performed in duplicate.
# Efflux pump inhibition assays were then performed against resistant Staphylococcus aureus strains SA 1199B and SA K2378 for bis-indolic derivatives. […] The minimal inhibitory concentration (MIC) of the bis-indolic compound allowing a complete inhibition of the bacterial growth in the presence of ciprofloxacin was determined.
# [17] = system: HCT116 (human colon tumor); assay: In vitro cytotoxicity; assay type: cell-based; details: for inhibition at 10 µM: HCT-116, HCT116, 10^−5 M, read-out: % of cellular growth inhibition; for inhibition at 1 µM: HCT-116, HCT116, 10^−6 M, read-out: % of cellular growth inhibition (converted)
# Experimental: (§2) In vitro cytotoxicity was assayed on three cell lines—KB (human mouth carcinoma), MCR5 (human lung fibroblast) and HCT116 (human colon tumor). Results are presented in table III as % of cellular growth inhibition in presence of 10^−5 M and 10^−6 M of the tested bis-indolic derivatives.
# [18] = system: KB (human mouth carcinoma); assay: In vitro cytotoxicity; assay type: cell-based; details: KB; for inhibition at 10 µM: 10^−5 M, read-out: % of cellular growth inhibition; for inhibition at 1 µM: 10^−6 M, read-out: % of cellular growth inhibition (converted)
# Experimental: as §2
# [19] = system: MRC5 (human lung fibroblast); assay: In vitro cytotoxicity; assay type: cell-based; details: for inhibition at 10 µM: MRC5, 10^−5 M, read-out: % of cellular growth inhibition; for inhibition at 1 µM: MRC5, 10^−6 M, read-out: % of cellular growth inhibition (converted)
# Experimental: as §2
# [20] = in the presence of ciprofloxacin 4 mg/L (MIC/4)
Structure (SMILES),MIC [1],MIC [2],MIC [3],MIC [4],MIC [5],MIC [6],MIC [7],MIC [8],MIC [9],MIC [10],MIC [11],MIC [12],MIC [13],MIC [14],MIC [15],"CMI, mg/L (Ciprofloxacin concentration, mg/L) [16, 20]",inhibition at 10 µM [17],inhibition at 1 µM [17],inhibition at 10 µM [18],inhibition at 1 µM [18],further results
"O=C(C(=O)N1CCCCC1c1c[nH]c2ccccc12)c1c[nH]c2ccccc12 (stereo not shown) [Compound 6a, 1-(2-(1H-Indol-3-yl)piperidin-1-yl)-2-(1H-indol-3-yl)ethane-1,2-dione]",> 128 µg/mL,> 128 µg/mL,> 128 µg/mL,> 128 µg/mL,> 128 µg/mL,> 128 µg/mL,> 128 µg/mL,> 128 µg/mL,> 128 µg/mL,> 128 µg/mL,> 128 µg/mL,> 128 µg/mL,> 128 µg/mL,> 128 µg/mL,> 128 µg/mL,<0.125 (4) mg/L,37 ± 6%,0%,20 ± 13%,0%,inhibition at 10 µM [19]: 28 ± 9%; inhibition at 1 µM [19]: 0%
"CC(C)(C)OC(=O)N1CCN(C(=O)C(=O)c2c[nH]c3ccc(Br)cc23)C(c2c[nH]c3ccc(Br)cc23)C1 (stereo not shown) [Compound 6f, tert-Butyl 3-(5-bromo-1H-indol-3-yl)-4-(2-(5-bromo-1H-indol-3-yl)-2-oxoacetyl) piperazine-1-carboxylate]",> 128 µg/mL,2 to 4 µg/mL,> 128 µg/mL,> 128 µg/mL,> 128 µg/mL,> 128 µg/mL,> 128 µg/mL,> 128 µg/mL,> 128 µg/mL,> 128 µg/mL,> 128 µg/mL,> 128 µg/mL,> 128 µg/mL,> 128 µg/mL,> 128 µg/mL,<0.25 (4) mg/L,81 ± 2%,0%,92 ± 3%,0%,inhibition at 10 µM [19]: 39 ± 4%; inhibition at 1 µM [19]: 0%
"CC(C)(C)OC(=O)NCC(NC(=O)C(=O)c1c[nH]c2ccccc12)c1c[nH]c2ccccc12 (stereo not shown) [Compound 2, tert-Butyl(2-(2-(1H-indol-3-yl)-2-oxoacetamido)-2-(1H-indol-3-yl)ethyl)carbamate]",> 128 µg/mL,> 128 µg/mL,> 128 µg/mL,> 128 µg/mL,> 128 µg/mL,> 128 µg/mL,> 128 µg/mL,> 128 µg/mL,> 128 µg/mL,> 128 µg/mL,> 128 µg/mL,> 128 µg/mL,> 128 µg/mL,> 128 µg/mL,> 128 µg/mL,0.5 (4) mg/L,96 ± 1%,53%,97 ± 1%,33%,"CMI, mg/L (Ciprofloxacin concentration, mg/L) ([16]; in the presence of ciprofloxacin 2 mg/L (MIC/8)): 2 (2) mg/L; inhibition at 10 µM [19]: 100 ± 2%; inhibition at 1 µM [19]: 10 ± 0.5%"
